As a reminder, the IC50 is the concentration that inhibits the measured activity by half. As a reminder, the pIC50 is −log10 of the IC50, conventionally taken in molar units.

pIC50: −log10 of the molar value. Active and inactive are the calls of the source. No rule for the calls is given here. Where only a bound is given, the exact number is not on record here.

Sequence of Microphthalmia-associated transcription factor (Homo sapiens) (O75030 whole entry, looked up): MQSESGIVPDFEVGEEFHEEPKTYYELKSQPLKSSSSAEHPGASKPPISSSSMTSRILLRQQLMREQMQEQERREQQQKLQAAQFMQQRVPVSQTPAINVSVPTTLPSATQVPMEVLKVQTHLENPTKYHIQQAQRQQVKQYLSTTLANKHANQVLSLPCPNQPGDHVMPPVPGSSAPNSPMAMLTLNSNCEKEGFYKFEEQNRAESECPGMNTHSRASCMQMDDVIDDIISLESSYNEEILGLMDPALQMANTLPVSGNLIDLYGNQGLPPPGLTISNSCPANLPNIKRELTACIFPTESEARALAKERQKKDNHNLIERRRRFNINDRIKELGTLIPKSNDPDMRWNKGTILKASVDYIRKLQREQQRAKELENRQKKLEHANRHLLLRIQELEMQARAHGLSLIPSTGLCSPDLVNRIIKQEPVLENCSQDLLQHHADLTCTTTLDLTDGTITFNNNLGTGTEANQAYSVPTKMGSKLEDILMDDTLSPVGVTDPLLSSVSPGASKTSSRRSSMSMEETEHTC

The test has as its target Microphthalmia-associated transcription factor (Homo sapiens) (UniProt O75030). The test can be described thus: compounds blocking human MITF signal – biochemical, AlphaScreen, dose response (AID 1259371). The settings on record: AlphaScreen biochemical MITF assay, signal inhibition. On the technique in general: Bead proximity is the source of the signal in Alpha formats.
As to `Cc1ncn(-c2ccc(N(C)c3ncc4cccc(-c5ccn[nH]5)c4n3)cc2)n1`, the IC50 was > 6480 nM (inactive).
The same measure, in the same setting: then `O=C(O)c1coc(CNC(=O)c2cocc2C(=O)O)c1`, with “inactive”; and `COC(=O)c1c(NC(=O)c2ccc([N+](=O)[O-])o2)sc(Cc2ccc3c(c2)OCO3)c1C`, with “inactive”.
As for `O=C(N/N=C/C=C/c1ccco1)c1ccncc1`, the negative logarithm of the IC50 (pIC50) was 7.61.
On the same count and under the same terms, then `O=C(Cc1cccs1)N/N=C\C=C\c1ccco1`, with 7.07; and `N#Cc1c(-c2ccco2)cc(-c2ccco2)nc1N`, with 7.70; and `COc1ccc(/C=C2\N=C(c3ccc4c(c3)OCO4)OC2=O)cc1Cl`, with 6.12.
`CN(C)CCOCCOc1ccccc1-c1ccccc1`: the IC50 entry was “inactive”.
Take `CN(C)C1C(=O)C(C(N)=O)=C(O)C2(O)C(=O)C3=C(O)c4c(O)cccc4C(C)(O)C3CC12` (stereo unspecified): the IC50 is > 6480 nM (inactive).
For the molecule `O=C(O)c1cc(-n2cccc2)ccc1Cl`, the pIC50 is 6.57.
Take `C[C@@H](OCc1ccccc1)[C@@H]1NC(=O)[C@H]2CN(C(=O)Nc3cccc(F)c3)CCN2C1=O`: the IC50 entry was “inactive”.
As to `O=C(OCN1C(=O)c2ccccc2C1=O)c1cc2c(s1)CCC2`, the pIC50 is 6.13.
With `COc1cccc(CN2CCN(C(=O)c3ccc(F)cc3)CC2)c1`, the IC50 result was “inactive”.
Turning to `C/C(=N\Nc1ccc(S(=O)(=O)O)cc1)c1cccc(Br)c1`, the IC50 result is “inactive”.
For the molecule `NC(=O)NC(=O)COC(=O)c1c2c(nc3ccccc13)/C(=C\c1ccco1)CCC2`, the pIC50 was 6.46.
Turning to `COC(C)(C)CNC(=O)C1CCN(C2CCN(Cc3cccc(C)n3)CC2)CC1`, the IC50 result was “inactive”.
The same measure, in the same setting: for `O=C(CCCCC1SCC2NC(=O)NC21)NC1(c2ccc(F)cc2)CCCC1` (stereo unspecified) the value was “inactive”; for `O=C1N[C@@H](Cc2ccccc2)C(=O)N2CCN(C(=O)NCc3ccccc3)C[C@H]12`, > 6480 nM (inactive).
On to `O=C(/C=C/c1ccco1)NCc1cccc(CNC(=O)/C=C/c2ccco2)c1`, for which the pIC50 is 6.94.
Still for that read-out and setting: then `O=C(O)c1cc(N/N=C/c2ccc(N3CCOCC3)s2)ccc1Cl`, with 6.93.
Consider `O=C(OC1CCCC1=O)c1ccc(S(=O)(=O)N2CCCCC2)cc1` (stereo unspecified), for which the IC50 result was “inactive”.
As for `COc1cc(/C=C2\C(C)=C([N+](=O)[O-])CS2(=O)=O)ccc1O`, the pIC50 is 7.51.
On to `CC(C)(C)OC(=O)N1C(C(=O)O)CSC1c1cc2c(cc1[N+](=O)[O-])OCO2` (stereo unspecified), for which the pIC50 was 6.04.
Same read-out and setting: then `S=c1[nH]nc(-c2ccco2)n1/N=C/C=C/c1ccco1`, with 8.28.
For the molecule `Cc1ccc(C)n1C(CC(=O)O)c1ccsc1` (stereo unspecified), the negative-log IC50 (pIC50) is 6.59.
On the same count and under the same terms, for `O=C(O)c1cc2ncc(-c3n[nH]c(-c4cnc5cc(C(=O)O)nn5c4)c3[N+](=O)[O-])cn2n1` the value was 6.19.
Turning to `CNC(=O)Nc1ccc2nc(-c3ccco3)c(-c3ccco3)nc2c1`, the pIC50 was 7.32.
Take `Cc1cccc(CN2CCN(S(=O)(=O)c3ccccc3[N+](=O)[O-])CC2)c1`: the IC50 was > 5080 nM (inactive).
On the same count and under the same terms, for `O=C1N[C@@H](CSCc2ccccc2)C(=O)N2CCN(C(=O)NC3CCCCC3)C[C@H]12` the value was “inactive”.
Turning to `O=C(/C=C/c1ccco1)Nc1cccc(NC(=O)/C=C/c2ccco2)n1`, the pIC50 is 7.98.
As to `COc1cc(N2CCOCC2)ccc1Nc1cc(NC(C)(C)c2ccccc2)c(C(F)(F)F)cn1`, the IC50 result was “inactive”.
`Clc1ccc(CN2CCN(Cc3c[nH]c4ccccc34)CC2)cc1`: the IC50 entry was “inactive”.
For `CC(C)[C@@H]1NC(=O)[C@H]2CN(C(=O)NCc3ccccc3)CCN2C1=O`, the pIC50 was 6.09.
For `O=C(CSc1nsc(SCC(=O)Nc2ccc(Cl)c(Cl)c2)n1)Nc1ccc(Cl)c(Cl)c1`, the IC50 entry was “inactive”.
On to `O=C1CCCC2=C1C(c1ccc([N+](=O)[O-])o1)C1=C(CCCC1=O)O2`, for which the IC50 result was “inactive”.
With `Cc1cc(/C=C2/C=CC(=O)O2)oc1C`, the pIC50 is 6.19.

The record behind these values is PubChem BioAssay AID1259371 (The Scripps Research Institute Molecular Screening Center, 2018).
